This is an account of results in PubChem BioAssay AID652002 (Sanford-Burnham Center for Chemical Genomics, 2013).

The source made the active and inactive calls. The rule behind the calls is not given here. Where only a bound is given, the exact number is not on record here.

For experiment [1], the target named is Tumor necrosis factor receptor superfamily member 10B (Homo sapiens) (UniProt O14763). As to the kind of experiment: compound enhancement of TRAIL-induced cell killing – NB7 cells plus caspase-8, luminescence, panel, dose response (AID 652002). The settings on record: NB7 neuroblastoma +caspase-8, TRAIL sensitization, luminescence viability; NB7+Caspase-8; with TRAIL, mean of runs.

A further experiment has as its target NB7+Caspase-8. The experiment is described as above. The settings on record: NB7 neuroblastoma +caspase-8, TRAIL sensitization, luminescence viability, with TRAIL.
Experiment in experiment [2]: as above
The settings on record: NB7 neuroblastoma +caspase-8, no TRAIL, compound-alone cytotoxicity counter-screen, luminescence viability, NB7+Caspase-8.

The mark [3] stands for this setting: run 1, single replicate panel EC50.
The mark [4] stands for this setting: run 2, single replicate panel EC50.

Sequence of Tumor necrosis factor receptor superfamily member 10B (Homo sapiens) (O14763 whole entry, looked up): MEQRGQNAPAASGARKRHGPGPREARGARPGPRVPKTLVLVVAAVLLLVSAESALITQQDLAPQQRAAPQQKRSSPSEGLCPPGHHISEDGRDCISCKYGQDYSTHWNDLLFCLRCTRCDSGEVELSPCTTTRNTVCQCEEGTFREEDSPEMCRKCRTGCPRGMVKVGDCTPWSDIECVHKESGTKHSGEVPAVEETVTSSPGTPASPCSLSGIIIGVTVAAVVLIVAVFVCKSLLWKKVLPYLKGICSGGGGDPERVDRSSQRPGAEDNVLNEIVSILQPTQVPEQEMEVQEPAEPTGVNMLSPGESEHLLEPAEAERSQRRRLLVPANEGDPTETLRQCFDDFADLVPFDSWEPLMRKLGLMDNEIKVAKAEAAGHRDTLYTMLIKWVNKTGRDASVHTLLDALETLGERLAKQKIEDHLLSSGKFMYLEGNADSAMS

A word on the EC50: it is the concentration needed to bring the measured effect to its halfway point. As for `CSc1nc(N)n2nc(-c3ccc(Cl)cc3)cc2n1`, the EC50 is > 12.5 µM (inactive) in experiment [1]; over 12.5 µM at NB7+Caspase-8 (setting [3]); over 12.5 µM on NB7+Caspase-8 (setting [4]); > 12.5 µM (inactive) in experiment [2] (mean of runs); over 12.5 µM in experiment [2] (setting [3]); over 12.5 µM in experiment [2] (setting [4]).

For the compound `CCOc1ccc(NC(=O)c2ccco2)cc1`, the EC50 entry in experiment [1] and in experiment [2] (mean of runs) was “inactive” each time. Moreover, the concentration for a half-maximal effect (EC50) at NB7+Caspase-8 (setting [3]) is over 12.5 µM; at NB7+Caspase-8 (setting [4]) it was 6.9 µM; in experiment [2] (setting [3]) it was 6.87 µM; in experiment [2] (setting [4]), 10.7 µM.

As to `CCCCCCc1cc2cc(S(=O)(=O)c3ccc(F)c(Cl)c3)c(=O)oc2cc1O`, the EC50 in experiment [1] was > 12.5 µM (inactive); at NB7+Caspase-8 (setting [3]) it was over 12.5 µM; at NB7+Caspase-8 (setting [4]) it was over 12.5 µM; in experiment [2] (mean of runs), > 12.5 µM (inactive); in experiment [2] (setting [3]), over 12.5 µM; in experiment [2] (setting [4]), over 12.5 µM.

With `CCOC(=O)c1sc(NC(=O)Nc2ccc(F)cc2)nc1C`, the EC50 is > 12.5 µM (inactive) in experiment [1]; over 12.5 µM at NB7+Caspase-8 (setting [3]); over 12.5 µM on NB7+Caspase-8 (setting [4]); > 12.5 µM (inactive) in experiment [2] (mean of runs); over 12.5 µM in experiment [2] (setting [3]); over 12.5 µM in experiment [2] (setting [4]).

For the compound `O=C1c2ccc3c4c(ccc(c24)C(=O)N1c1cccc(O)c1)C(=O)N(c1cccc(O)c1)C3=O`, the EC50 result in experiment [1] is “inactive”. In addition, the EC50 at NB7+Caspase-8 (setting [3]) is 2.35 µM; at NB7+Caspase-8 (setting [4]), 12.4 µM; in experiment [2] (mean of runs), > 12.5 µM (inactive); in experiment [2] (setting [3]), over 12.5 µM; in experiment [2] (setting [4]), over 12.5 µM.

Take `COc1ccccc1/C=C/C=N/n1c(-c2cc(-c3ccccc3)n[nH]2)n[nH]c1=S`: the EC50 in experiment [1] is > 12.5 µM (inactive); at NB7+Caspase-8 (setting [3]), over 12.5 µM; on NB7+Caspase-8 (setting [4]) it was over 12.5 µM; in experiment [2] (mean of runs), > 12.5 µM (inactive); in experiment [2] (setting [3]), over 12.5 µM; in experiment [2] (setting [4]) it was over 12.5 µM.

In the case of `C/C(=N\NC(=O)c1n[nH]c2c1CCC2)c1ccco1`, the EC50 in experiment [1] is > 12.5 µM (inactive); at NB7+Caspase-8 (setting [3]) it was over 12.5 µM; at NB7+Caspase-8 (setting [4]), over 12.5 µM; in experiment [2] (mean of runs), > 12.5 µM (inactive); in experiment [2] (setting [3]), over 12.5 µM; in experiment [2] (setting [4]), over 12.5 µM.

On to `CCOC(=O)c1sc(NC(=O)c2cc(-c3ccccc3C)nc3ccccc23)c(C#N)c1C`, for which the EC50 in experiment [1] was > 12.5 µM (inactive); on NB7+Caspase-8 (setting [3]), over 12.5 µM; on NB7+Caspase-8 (setting [4]), over 12.5 µM; in experiment [2] (mean of runs), > 12.5 µM (inactive); in experiment [2] (setting [3]) it was over 12.5 µM; in experiment [2] (setting [4]) it was over 12.5 µM.

Consider `CCOC(=O)[C@]12Cc3cc4ccccc4cc3[C@H]1N(Cc1ccccc1)C(=O)c1cc(OC)ccc12`, for which the EC50 was > 12.5 µM (inactive) in experiment [1]; over 12.5 µM at NB7+Caspase-8 (setting [3]); over 12.5 µM at NB7+Caspase-8 (setting [4]); > 12.5 µM (inactive) in experiment [2] (mean of runs); over 12.5 µM in experiment [2] (setting [3]); over 12.5 µM in experiment [2] (setting [4]).

Regarding `CN(C)CCCN(C(=O)c1ccc(C(=O)c2ccccc2)cc1)c1nc2ccc(F)cc2s1`, the EC50 was > 12.5 µM (inactive) in experiment [1]; over 12.5 µM on NB7+Caspase-8 (setting [3]); over 12.5 µM at NB7+Caspase-8 (setting [4]); > 12.5 µM (inactive) in experiment [2] (mean of runs); over 12.5 µM in experiment [2] (setting [3]); over 12.5 µM in experiment [2] (setting [4]).

As to `O=C(NNC(=O)c1cc(OCC(F)(F)F)ccc1OCC(F)(F)F)c1ccc(Cl)c(Cl)c1`, the EC50 in experiment [1] was > 12.5 µM (inactive); at NB7+Caspase-8 (setting [3]), over 12.5 µM; at NB7+Caspase-8 (setting [4]) it was over 12.5 µM; in experiment [2] (mean of runs), > 12.5 µM (inactive); in experiment [2] (setting [3]) it was over 12.5 µM; in experiment [2] (setting [4]), over 12.5 µM.

Take `C=Cc1ccc(Cn2c(C)c(C(=O)NCc3cccc(C(F)(F)F)c3)sc2=O)cc1`: the EC50 is > 12.5 µM (inactive) in experiment [1]; over 12.5 µM on NB7+Caspase-8 (setting [3]); over 12.5 µM on NB7+Caspase-8 (setting [4]); > 12.5 µM (inactive) in experiment [2] (mean of runs); over 12.5 µM in experiment [2] (setting [3]); over 12.5 µM in experiment [2] (setting [4]).

Take `Cc1cc2nc(-c3ccc(SCC(=O)Nc4nccs4)nc3)[nH]c2cc1C`: the EC50 result in experiment [1] is “inactive”. For the same compound, the EC50 on NB7+Caspase-8 (setting [3]) was 5.16 µM; on NB7+Caspase-8 (setting [4]), over 12.5 µM; in experiment [2] (mean of runs) it was > 12.5 µM (inactive); in experiment [2] (setting [3]), over 12.5 µM; in experiment [2] (setting [4]), over 12.5 µM.

As for `CC1(Cc2ccc(OC(F)(F)F)cc2)C(=O)Nc2ccc(S(=O)(=O)NC3CCCCC3)cc21` (stereo not given), the EC50 was > 12.5 µM (inactive) in experiment [1]; over 12.5 µM at NB7+Caspase-8 (setting [3]); over 12.5 µM on NB7+Caspase-8 (setting [4]); over 12.5 µM in experiment [2] (setting [3]); 12.3 µM in experiment [2] (setting [4]). In experiment [2] (mean of runs), the EC50 entry is “inactive”.

For the compound `O=C(ONC1=NCCCCC1)c1ccc(Cl)cc1`, the EC50 in experiment [1] is > 12.5 µM (inactive); at NB7+Caspase-8 (setting [3]), over 12.5 µM; at NB7+Caspase-8 (setting [4]) it was over 12.5 µM; in experiment [2] (setting [3]), over 12.5 µM; in experiment [2] (setting [4]) it was 7.44 µM. Moreover, the EC50 result in experiment [2] (mean of runs) was “inactive”.
